ChEMBL document CHEMBL1201862, “PubChem BioAssay data set” (2004)
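Grown in 96-well plates, cells were treated for 48 hours with each compound at five concentrations. Insufficient inhibition: endpoint recorded as highest concentration tested. GI50: concentration for 50% inhibition of growth.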 The source made the active and inactive calls. Rule as the data show it: active = GI50 up to about 1.1 µM and inactive = higher.

Key:
Assay in all cases: NCI-60 cell line screen, 48 h
CCRF-CEM = test system: CCRF-CEM
COLO 205 = test system: COLO 205
SK-MEL-5 = test system: SK-MEL-5
TK-10 = test system: TK-10
K562 = test system: K562
NCI-H23 = test system: NCI-H23
SF-539 = test system: SF-539
MDA-MB-231 = test system: MDA-MB-231
SK-OV-3 = test system: SK-OV-3
SF-295 = test system: SF-295
786-0 = test system: 786-0
SK-MEL-2 = test system: SK-MEL-2
SNB-19 = test system: SNB-19
UO-31 = test system: UO-31
RXF 393 = test system: RXF 393
SF-268 = test system: SF-268
HT-29 = test system: HT-29
OVCAR-5 = test system: OVCAR-5
SR = test system: SR
T47D = test system: T47D

With `COc1cc(/C=C2/C(=O)N(C(=O)c3ccccc3O)N=C2C)ccc1O` the GI50 (CCRF-CEM) was 0.201 µM (active), the GI50 (COLO 205) was 18.9 µM (inactive) and the GI50 (SK-MEL-5) was 0.274 µM (active). The GI50 (TK-10) was 5.4 µM (inactive), the GI50 (K562) was 0.104 µM (active) and the GI50 (NCI-H23) was 0.277 µM (active). For the same molecule, the GI50 (SF-539) was 0.14 µM (active), the GI50 (MDA-MB-231) was > 100 µM (inactive) and the GI50 (SK-OV-3) was 0.223 µM (active). The GI50 (SF-295) was 0.214 µM (active), the GI50 (786-0) was 0.421 µM (active) and the GI50 (SK-MEL-2) was 1.01 µM (active). For the same molecule, the GI50 (SNB-19) was 0.123 µM (active), the GI50 (UO-31) was 0.17 µM (active) and the GI50 (RXF 393) was 0.0628 µM (active). The GI50 (SF-268) was 0.23 µM (active), the GI50 (HT-29) was 9.55 µM (inactive) and the GI50 (OVCAR-5) was 6.46 µM (inactive). The GI50 (SR) was 0.206 µM (active) and the GI50 (T47D) was 0.404 µM (active).
For `CN1C(=O)c2ccc3ccccc3c2C1=O`, the GI50 (CCRF-CEM) was > 100 µM (inactive), the GI50 (COLO 205) was > 100 µM (inactive) and the GI50 (SK-MEL-5) was > 100 µM (inactive). For the same molecule, the GI50 (TK-10) was > 100 µM (inactive), the GI50 (K562) was > 100 µM (inactive) and the GI50 (NCI-H23) was > 100 µM (inactive). The GI50 (SF-539) was > 100 µM (inactive), the GI50 (MDA-MB-231) was > 100 µM (inactive) and the GI50 (SK-OV-3) was > 100 µM (inactive). The GI50 (SF-295) was > 100 µM (inactive), the GI50 (786-0) was > 100 µM (inactive) and the GI50 (SK-MEL-2) was > 100 µM (inactive). The GI50 (SNB-19) was > 100 µM (inactive), the GI50 (UO-31) was > 100 µM (inactive) and the GI50 (RXF 393) was 30.8 µM (inactive). The GI50 (SF-268) was > 100 µM (inactive), the GI50 (HT-29) was > 100 µM (inactive) and the GI50 (OVCAR-5) was > 100 µM (inactive). The GI50 (SR) was > 100 µM (inactive) and the GI50 (T47D) was 63.5 µM (inactive).
`CCOC(=O)c1cccc(/N=N/c2ncc(/C=C/C(=O)OC)[nH]2)c1` was tested, and the GI50 (CCRF-CEM) was 6 µM (inactive), the GI50 (COLO 205) was 18.8 µM (inactive) and the GI50 (SK-MEL-5) was 10.8 µM (inactive). The GI50 (TK-10) was 26.5 µM (inactive), the GI50 (K562) was 20.9 µM (inactive) and the GI50 (NCI-H23) was 28.2 µM (inactive). The GI50 (SF-539) was 21.5 µM (inactive), the GI50 (MDA-MB-231) was 36.7 µM (inactive) and the GI50 (SK-OV-3) was 55.7 µM (inactive). For the same molecule, the GI50 (SF-295) was 20.4 µM (inactive), the GI50 (786-0) was 14.6 µM (inactive) and the GI50 (SK-MEL-2) was 27.4 µM (inactive). The GI50 (SNB-19) was 34.4 µM (inactive), the GI50 (UO-31) was 18 µM (inactive) and the GI50 (RXF 393) was 29.9 µM (inactive). For the same molecule, the GI50 (SF-268) was 26.8 µM (inactive), the GI50 (HT-29) was 23.5 µM (inactive) and the GI50 (OVCAR-5) was 55 µM (inactive). The GI50 (SR) was 4.12 µM (inactive) and the GI50 (T47D) was 29.3 µM (inactive).
`CCOC(=O)C1=C(C(=O)c2ccc(C)cc2)C(c2cccc([N+](=O)[O-])c2)C(C(=O)c2ccc(C)cc2)=C(C(=O)OCC)N1` was tested, and the GI50 (CCRF-CEM) was 5.69 µM (inactive), the GI50 (COLO 205) was 1.95 µM (inactive) and the GI50 (SK-MEL-5) was 17.8 µM (inactive). The GI50 (TK-10) was 17.2 µM (inactive), the GI50 (K562) was 7.24 µM (inactive) and the GI50 (NCI-H23) was 15.8 µM (inactive). For the same molecule, the GI50 (SF-539) was 12.8 µM (inactive), the GI50 (MDA-MB-231) was 13.9 µM (inactive) and the GI50 (SK-OV-3) was 5.92 µM (inactive). The GI50 (SF-295) was 16.1 µM (inactive), the GI50 (786-0) was 16.2 µM (inactive) and the GI50 (SK-MEL-2) was 26.1 µM (inactive). The GI50 (SNB-19) was 6.08 µM (inactive), the GI50 (UO-31) was 11.4 µM (inactive) and the GI50 (RXF 393) was 21 µM (inactive). The GI50 (SF-268) was 17.7 µM (inactive), the GI50 (HT-29) was 13 µM (inactive) and the GI50 (OVCAR-5) was 17.2 µM (inactive). The GI50 (SR) was 2.93 µM (inactive) and the GI50 (T47D) was 2.41 µM (inactive).
`COC(=O)c1ccccc1C1CN=NC12Cc1cccc(C)c1C2=O` (stereo not given) was tested, and the GI50 (CCRF-CEM) was 52.7 µM (inactive), the GI50 (COLO 205) was > 10 µM (inactive) and the GI50 (SK-MEL-5) was 34.4 µM (inactive). The GI50 (TK-10) was 65.9 µM (inactive), the GI50 (K562) was 53.1 µM (inactive) and the GI50 (NCI-H23) was 51.9 µM (inactive). For the same molecule, the GI50 (SF-539) was > 100 µM (inactive), the GI50 (MDA-MB-231) was > 100 µM (inactive) and the GI50 (SK-OV-3) was > 100 µM (inactive). The GI50 (SF-295) was 34.4 µM (inactive), the GI50 (786-0) was 90.4 µM (inactive) and the GI50 (SK-MEL-2) was 46.1 µM (inactive). For the same molecule, the GI50 (SNB-19) was 70 µM (inactive), the GI50 (UO-31) was 20.8 µM (inactive) and the GI50 (RXF 393) was 11.5 µM (inactive). The GI50 (SF-268) was 61.4 µM (inactive), the GI50 (HT-29) was 57.7 µM (inactive) and the GI50 (OVCAR-5) was > 100 µM (inactive). For the same molecule, the GI50 (SR) was 94.4 µM (inactive) and the GI50 (T47D) was 16.6 µM (inactive).
For `Cc1csc2nc3c(cnn3C)c(=S)n12`, the GI50 (CCRF-CEM) was 87.7 µM (inactive), the GI50 (COLO 205) was > 10 µM (inactive) and the GI50 (SK-MEL-5) was > 100 µM (inactive). The GI50 (TK-10) was 80.5 µM (inactive), the GI50 (K562) was > 100 µM (inactive) and the GI50 (NCI-H23) was > 100 µM (inactive). The GI50 (SF-539) was > 100 µM (inactive), the GI50 (MDA-MB-231) was > 10 µM (inactive) and the GI50 (SK-OV-3) was 61.8 µM (inactive). The GI50 (SF-295) was > 100 µM (inactive), the GI50 (786-0) was > 100 µM (inactive) and the GI50 (SK-MEL-2) was 41.9 µM (inactive). For the same molecule, the GI50 (SNB-19) was > 100 µM (inactive), the GI50 (UO-31) was 33.5 µM (inactive) and the GI50 (RXF 393) was 35.1 µM (inactive). For the same molecule, the GI50 (SF-268) was > 100 µM (inactive), the GI50 (HT-29) was 84.5 µM (inactive) and the GI50 (OVCAR-5) was > 100 µM (inactive). The GI50 (SR) was > 100 µM (inactive) and the GI50 (T47D) was > 10 µM (inactive).
`CSC1(SC)CCCCCCCCCCC1` was tested, and the GI50 (CCRF-CEM) was 22.9 µM (inactive), the GI50 (COLO 205) was 19.2 µM (inactive) and the GI50 (SK-MEL-5) was 35.2 µM (inactive). The GI50 (TK-10) was 90.2 µM (inactive), the GI50 (K562) was 32 µM (inactive) and the GI50 (NCI-H23) was 68.9 µM (inactive). For the same molecule, the GI50 (SF-539) was > 100 µM (inactive), the GI50 (MDA-MB-231) was 41.4 µM (inactive) and the GI50 (SK-OV-3) was 83.9 µM (inactive). For the same molecule, the GI50 (SF-295) was 37.3 µM (inactive), the GI50 (786-0) was 37.1 µM (inactive) and the GI50 (SK-MEL-2) was 24 µM (inactive). For the same molecule, the GI50 (SNB-19) was 53.5 µM (inactive), the GI50 (UO-31) was 31.3 µM (inactive) and the GI50 (RXF 393) was 25 µM (inactive). The GI50 (SF-268) was 53.7 µM (inactive), the GI50 (HT-29) was 31.7 µM (inactive) and the GI50 (OVCAR-5) was 53.2 µM (inactive). For the same molecule, the GI50 (SR) was 43.7 µM (inactive) and the GI50 (T47D) was 25 µM (inactive).
